Measured values reported in patent publication US7652037B2, “Methods of lowering lipid levels in a mammal” (City Of Hope, priority 2003, dated 2010).

Experiments:
STZ-Diabetic Rats [1] = assay: Renal parameters in STZ-diabetic rats treated with LR-9 or LR-74 (Example 10); format: in vivo, rat; conditions: for Kidney/Body wt. Ratio / Plasma Creatinine / Urinary Albumin: 50 mg/L in drinking water, 32 weeks; for decrease of elevated plasma creatinine concentrations: diabetic rats
Experimental: Diabetes was induced in male Sprague-Dawley rats by a single i.p. injection of STZ (65 mg/kg in citrate buffer, pH 4.5) after an overnight fast. Non-diabetic animals were injected with citrate buffer only. One week after STZ injection, only animals with >20 mmol/L plasma glucose were classified as diabetic and included in the study. Diabetic rats were divided randomly into the following treatment groups: diabetic untreated (D); and two diabetic treatment groups, receiving either LR-9 (D+LR-9) or LR-74 (D+LR-74) at 50 mg/L in drinking water. Three non-diabetic groups were studied concurrently: one untreated non-diabetic group (ND), and two non-diabetic groups treated with either LR-9 (ND+LR-9) or LR-74 (ND+LR-74) at 50 mg/L in drinking water.
Both plasma glucose and body weight were checked before administration of the drug, and no differences were detected among the three diabetic treatment groups or among the three non-diabetic groups. All animals were housed individually and were given free access to food and water. Glycemic control and body weights were monitored periodically. To limit hyperglycemia and ensure that animals maintained body weight, diabetic animals received 3 IU of ultralente insulin two to three times per week. The study was carried out over 32 weeks. Progression of renal dysfunction was assessed by measuring urinary albumin and plasma creatinine concentrations according to known methods. Figarola et al., Diabetologia 46:1140-115, 2003.

STZ-Diabetic Rats [2] = assay: AGEs/ALEs (CML, CEL) in skin collagen by LC-ESI/MS/MS (Example 12); format: in vivo, rat
Experimental: Tail tendon collagen was isolated from each rat in Example 11 and the degree of AGE formation in collagen was assessed by measurement of fluorescent AGE after enzymatic digestion. Figarola et al., Diabetologia 46:1140-115, 2003. Skin collagen isolation and reduction was performed as described in Shaw et al., Methods Mol. Biol. 186:129-137, 2002. Levels of AGEs/ALEs were normalized to the lysine content of the collagen samples.
Ion-pair reversed-phase liquid chromatography/tandem mass spectroscopy analysis was performed using an Agilent Technologies™ LC1100 series system interfaced to a Micromass Quatro™ Ultima Triple Quadripole Mass Spectrometer. HPLC separation was achieved using a Phenomenex Synergi™ Hydro-RP […] 80A 150×2.0 mm column preceded by a Phenomenex C18 guard column. The column temperature was maintained at 25° C. and the flow was 0.2 mL/minute. The isocratic mobile phase consisted of 10% acetonitrile and 0.1% heptafluorobutyric acid in water. Total run time was 12 minutes; injection volume was 20 μL. The autoinjector temperature was 5° C. The electrospray ionization source of the mass spectrophotometer was operated in the positive ion mode with a cone gas flow of 190 L/hour and desolvation gas flow of 550 L/hour. The capillary voltage was set to 2.7 kV. Cone and collision cell voltages were optimized to 25 V and 13 eV for CML, 33 V and 12 eV d4CML, 24 V and 14 eV for CEL, […] and 14 eV for D8CEL, and […] and 16 eV for lysine, respectively. […] The desolvation temperature was increased to 300° C., and the solvent delay program was used from 0 to 3 minutes and 10 to 12 minutes. The fragmentation of these compounds can be induced under collision dissociation conditions and acidic mobile phase. The precursor→product ion combinations at m/z were 205.1→130.11 for CML, 209.12→134.12 for d4CML, 219.11→130.11 for CEL, 227.18→138.16 for d8CEL, 147.15→84.21 for lysine and 151.27→88.33 for DL-d4Lysine were used in multiple reaction monitoring (MRM) mode to determine these compounds. MassLynx™ version 3.5 software was used for data acquisition and processing.
All solutions of standards and internal standards were prepared in water. Standard solution containing both CML and CEL were prepared at six concentrations: 4, 10, 20, 40, 100 and 200 pmol/mL for CML and 2, 5, 10, 20, 50 and 100 pmol/mL for CEL. Quality control solutions were prepared at two concentrations: 7.5 and 150 pmol/mL for CML and 3.75 and 75 pmol/mL for CEL. A stock solution of heavy-labeled internal standards (d4CML and d8CEL) was prepared at 800 pmol/mL. For generation of a standard curve, 130 μL of standard solution was freshly mixed with 10 μL 0.1 M ammonium bicarbonate, 10 μL 0.05% HFBA and 10 μL internal standard stock solution to give a caliber. […]

Human LDL = assay: Cu++-mediated oxidation of LDL, TBARS (Example 9); conditions: 5 μM CuCl2, 10-250 μM compound, 5 hours, 37° C.
Experimental: The ability of the LR compounds to inhibit lipid peroxidation was tested using Cu^++-mediated lipid oxidation, a common in vitro model for studies on lipoxidative modifications of proteins. The effects of the LR compounds on lipid peroxidation were studied using Cu^++-mediated oxidation of LDL. Human LDL (50 μg of protein/mL) was incubated at 37° C. in chelex-treated PBS buffer alone or in the presence of 5 μM CuCl2 or 5 μM CuCl2 plus various concentrations of the inhibitor compounds (10-250 μM). After 5 hours of incubation, the amount of thiobarbituric acid reactive substances (expressed as malondialdehyde (MDA) equivalents) generated in the reaction mixture was calculated according to methods described by Dillon et al., Life Sci. #72:1583-1594, 2003. Briefly, aliquots from each sample were precipitated with 20% trichloroacetic acid, centrifuged and an equal volume of 1% thiobarbituric acid was added to the supernatant. The samples then were heated to 95° C. for 10 minutes, and upon cooling, the absorbance was read at 532 nm. Hydrolyzed tetraethoxypropane was used as a standard for the MDA equivalent calculation.

CC(C)(Oc1ccc(NC(=O)c2ccc3ccccc3c2)cc1)C(=O)O [LR-9, 4-(2-napthylcarboxamido) phenoxyisobutyric acid]
Kidney/Body wt. Ratio (STZ-Diabetic Rats [1]; diabetic (D) rats): 1.58 ± 0.11 g/100 g
Plasma Creatinine (STZ-Diabetic Rats [1]; diabetic (D) rats): 1.79 ± 0.39 mg/dL
Urinary Albumin (STZ-Diabetic Rats [1]; diabetic (D) rats): 18.0 ± 3.7 mg/42 hr
decrease of elevated plasma creatinine concentrations (STZ-Diabetic Rats [1]): ~50%
Kidney/Body wt. Ratio (STZ-Diabetic Rats [1]; non-diabetic (ND) rats): 0.51 ± 0.01 g/100 g
Plasma Creatinine (STZ-Diabetic Rats [1]; non-diabetic (ND) rats): 0.42 ± 0.02 mg/dL
Urinary Albumin (STZ-Diabetic Rats [1]; non-diabetic (ND) rats): 4.8 ± 1.2 mg/42 hr
CEL concentration in skin collagen (STZ-Diabetic Rats [2]): significantly limited the increase
CML concentration in skin collagen (STZ-Diabetic Rats [2]): significantly limited the increase

CC(Oc1cccc2cccnc12)C(=O)O (centres unmarked) [LR-74, 2-(8-quinolinoxy) propionic acid]
inhibition of Cu++-mediated LDL oxidation (lipid peroxidation) (Human LDL): better than AG
Kidney/Body wt. Ratio (STZ-Diabetic Rats [1]; diabetic (D) rats): 1.52 ± 0.10 g/100 g
Plasma Creatinine (STZ-Diabetic Rats [1]; diabetic (D) rats): 1.64 ± 0.44 mg/dL
Urinary Albumin (STZ-Diabetic Rats [1]; diabetic (D) rats): 14.3 ± 3.7 mg/42 hr
decrease of elevated plasma creatinine concentrations (STZ-Diabetic Rats [1]): ~50%
Kidney/Body wt. Ratio (STZ-Diabetic Rats [1]; non-diabetic (ND) rats): 0.52 ± 0.01 g/100 g
Plasma Creatinine (STZ-Diabetic Rats [1]; non-diabetic (ND) rats): 0.42 ± 0.03 mg/dL
Urinary Albumin (STZ-Diabetic Rats [1]; non-diabetic (ND) rats): 4.6 ± 1.2 mg/42 hr
CEL concentration in skin collagen (STZ-Diabetic Rats [2]): significantly limited the increase
CML concentration in skin collagen (STZ-Diabetic Rats [2]): significantly limited the increase

methylene bis(4,4′-(2-chlorophenylureidophenoxyisobutyric acid) [LR-90]
inhibition of Cu++-mediated LDL oxidation (lipid peroxidation) (Human LDL): better than AG
